Experimental data published in paper PMC4068143 (ACS chemical biology, 2014).
Like-named read-outs stand apart in the source and are kept apart here.

Assays:
[1] = test system: C6^7G8 (CQR) pfcrt transfectant line; assay: DV H+ leak assay
[2] = test system: P. falciparum C2^GC03 (CQS); assay: In vitro antiplasmodial growth assay, pfcrt transfectant line C2^GC03; type: cell-based, Plasmodium falciparum; conditions: read-out: IC50, parasite strain C2^GC03
[3] = test system: P. falciparum C6^7G8 (CQR); assay: In vitro antiplasmodial growth assay, pfcrt transfectant line C6^7G8; type: cell-based, Plasmodium falciparum
[4] = test system: P. falciparum C4^Dd2 (CQR); assay: In vitro antiplasmodial growth assay, pfcrt transfectant line C4^Dd2; type: cell-based, Plasmodium falciparum
[5] = test system: C4^Dd2 (CQR) pfcrt transfectant line; assay: DV H+ leak assay
[6] = molecular target: T1, Dd2 PfCRT^CQR (Plasmodium falciparum, UniProt Q9N623, A220S/I356T/K76T/M74I/N326S/N75E/Q271E/R371I); conditions: oocyte system; cited from earlier work
T1 sequence (Q9N623 1-424 M74I/N75E/K76T/A220S/Q271E/N326S/I356T/R371I): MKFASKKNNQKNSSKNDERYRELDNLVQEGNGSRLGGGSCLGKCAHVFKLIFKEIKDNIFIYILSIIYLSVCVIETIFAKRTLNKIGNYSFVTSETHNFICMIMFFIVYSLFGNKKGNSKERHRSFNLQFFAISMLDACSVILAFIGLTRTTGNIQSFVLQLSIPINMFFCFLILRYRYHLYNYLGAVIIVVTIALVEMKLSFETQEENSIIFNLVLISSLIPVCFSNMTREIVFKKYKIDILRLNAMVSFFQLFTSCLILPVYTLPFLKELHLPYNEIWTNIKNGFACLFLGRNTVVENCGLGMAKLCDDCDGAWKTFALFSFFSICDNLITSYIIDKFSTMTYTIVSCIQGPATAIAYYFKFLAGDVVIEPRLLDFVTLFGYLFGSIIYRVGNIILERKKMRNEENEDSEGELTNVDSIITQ

[7] = test system: P. falciparum FCB (CQR); assay: microbe, parasite or virus in culture; type: cell-based; conditions: Plasmodium falciparum, read-out: IC50, parasite strain FCB
[8] = test system: CQS N-strain of P. berghei; assay: Peters 4-day parasite suppression test in P. berghei-infected mice; type: in vivo, CD-1 mice; conditions: Plasmodium berghei, in Mus musculus, po, 96 h
[9] = test system: P. falciparum Dd2 (CQR); assay: microbe, parasite or virus in culture; type: cell-based; conditions: Plasmodium falciparum, DD2, read-out: IC50, parasite strain Dd2
[10] = test system: P. falciparum HB3 (CQS); assay: [3H]-hypoxanthine incorporation parasite growth assay, strain HB3; type: cell-based; conditions: Plasmodium falciparum, HB3, read-out: IC50, parasite strain HB3
[11] = test system: β-hematin formation; assay: Inhibition of β-hematin formation; conditions: read-out: IC50 (heme): concentration that inhibited 50% of β-hematin production in vitro; 60 °C, 1 h
[12] = test system: C2^GC03 (CQS) pfcrt transfectant line; assay: DV H+ leak assay; conditions: compound 1 µM
[13] = test system: P. falciparum P31 (CQR); assay: microbe, parasite or virus in culture; type: cell-based; conditions: Plasmodium falciparum, read-out: IC50, parasite strain P31
[14] = Plasmodium falciparum, 7G8, read-out: IC50, parasite strain C6^7G8
[15] = Plasmodium falciparum, DD2, read-out: IC50, parasite strain C4^Dd2

Structure (SMILES): CCN(CC)CCCC(C)Nc1ccnc2cc(Cl)ccc12 (centres unmarked) [CQ, Chloroquine]
- rate of concanamycin A-induced DV alkalinization ([1]; CQ 2.5 µM): increased the rate of DV alkalinization
- IC50 ([2]; Plasmodium falciparum): 12.4 ± 1.7 nM
- IC50 [3, 14]: 26.9 ± 3.7 nM
- IC50 [4, 15]: 31 ± 1.9 nM
- rate of concanamycin A-induced DV alkalinization ([5]; CQ 2.5 µM): increased the rate of DV alkalinization

Structure (SMILES): CCNCCCC(C)Nc1ccnc2cc(Cl)ccc12 (centres unmarked) [monodesethyl-CQ]
- IC50 ([2]; mean ± SEM, three experiments): 31.4 ± 1.5 nM
- IC50 ([3]; read-out: IC50, parasite strain C6^7G8, mean ± SEM, three experiments): 855 ± 186 nM
- IC50 ([4]; read-out: IC50, parasite strain C4^Dd2, mean ± SEM, three experiments): > 1500 nM

Structure (SMILES): Clc1ccc2c(N3CCN(CCCN4CCN(c5ccnc6cc(Cl)ccc56)CC4)CC3)ccnc2c1 [piperaquine]
- ability to inhibit the transport of [3H]CQ via PfCRT^CQR [6]: lacked the ability to inhibit

Structure (SMILES): C=C[C@H]1C[N@@]2CC[C@H]1C[C@H]2[C@H](O)c1ccnc2ccc(OC)cc12 [quinine]
- IC50 [7]: 355 ± 17.8 nM
- rate of concanamycin A-induced DV alkalinization ([1]; compound 1 µM): increased the rate of DV alkalinization
- IC50 ([2]; Plasmodium falciparum): 56 ± 3 nM
- times more susceptible than the C2^GC03 line ([3]; C6^7G8 vs C2^GC03): 2–4 times
- IC50 [3, 14]: 15.9 ± 0.7 nM
- ED50 [8]: 48.7 mg/kg
- IC50 [9]: 188 ± 28.9 nM
- times more susceptible than the C2^GC03 line ([4]; C4^Dd2 vs C2^GC03): 2–4 times
- IC50 [4, 15]: 18.4 ± 0.9 nM
- IC50 [10]: 108 ± 11.7 nM
- rate of concanamycin A-induced DV alkalinization ([5]; compound 1 µM): increased the rate of DV alkalinization
- IC50 [11]: 3900 ± 100 nM
- rate of concanamycin A-induced DV alkalinization [12]: without effect
- IC50 [13]: 535 ± 40.8 nM
